Measurements taken from US8969362B2 (priority 2004, dated 2015).

Assays:
rat spleen cells = experiment: cells; format: cell-based; settings: 24 h, read-out: Minimum effective concentration (interferon inducing activity)
[1] = Metabolic stability test on rat liver S9; format: in vitro ADME; settings: rat liver S9 with NADPH, 1 μM test compound, 37° C.; residual rate after reaction
Protocol: The reaction using liver S9 of rat was conducted on a 96-well plate by using a screening robot by Tecan Company. S9 solution was prepared by adding 250 mM Kpi (ph 7.4) 20 ml and deionized water 20 ml to 10 ml of liver S9 of rat, a Cofactor solution was prepared by dissolving NADPH 220 mg in deionized water 40.5 ml (Final 6 mM), and IS (Internal Standard) solution was prepared by adding IS solution (1 mM DMSO solution) 300 μl to acetonitrile 30 ml (100 times dilution). The test compound (1 μM DMSO solution) was dissolved in an incubator at 37° C. After each 35 μL was poured in a 96-well plate (24 samples/plate), plates (sample plates, 96-well plates for dilution, each Deep well plates for the reaction and the recovery, plates for extraction of a solid phase) and reagents (S9 solution, Cofactor solution, IS (Internal Standard) solution, Stop solution, acetonitrile for elution) were set to the specified position in the booth of the robot and the reaction started (the concentration of the test compounds was 1 μM). Incubation was conducted under shaking at 37° C., the solid phase was extracted (at the same time, the internal standard for analysis was added). To the recovered samples 200 μL/well was added 50 μL of acetonitrile per each well, and to 2 plates of FALCON Deep well were poured 100 μL/well of the solution per well. By subjecting to the LC/MS analysis, the chromatography of the test compound and the internal standard were described and the peak area was calculated. And then, the stability (residual rate after reaction) was calculated.

[2] = Metabolic stability test using human plasma; format: in vitro ADME; settings: 1 μM test compound, 37° C., 15 minutes, pre-metabolization concentration as 100%
Protocol: Plasma was prepared from fresh human blood and the test compound (containing 1% DMSO) of the final concentration of 1 μM was added thereto.
After a metabolic reaction by plasma esterase was conducted at 37° C. for 15 minutes, the test compound was extracted with ethyl acetate, and quantitatively analyzed by reverse phase HPLC. The metabolic stability of the test compound was shown by the residual amount (%) per the concentration of pre-metabolization as 100%.

Row | Structure (SMILES) | minimal effective concentration (rat spleen cells) | Residual rate [1] | Residual rate [2]
1 | CCCCOc1nc(N)c2[nH]c(=O)n(CCOc3cccc(C(=O)OC)c3)c2n1 [Example 1, 2-butoxy-8-oxo-9-[2-(3-methoxycarbonylphenoxy)ethyl]adenine] | 0.0003 µM | 0% | 
2 | CCCCOc1nc(N)c2[nH]c(=O)n(CCOc3cccc(CC(=O)OC)c3)c2n1 [Example 2, 2-butoxy-8-oxo-9-[2-(3-methoxycarbonylmethylphenoxy)ethyl]adenine] | 0.003 µM | 1% | 1.4%
3 | CCCCOc1nc(N)c2[nH]c(=O)n(CCOc3ccccc3C(=O)OC)c2n1 [Example 3, 2-butoxy-8-oxo-9-[2-(2-methoxycarbonylphenoxy)ethyl]adenine] | 0.001 µM | 0% | 
4 | CCCCOc1nc(N)c2[nH]c(=O)n(CCOc3ccccc3CC(=O)OC)c2n1 [Example 4, 2-butoxy-8-oxo-9-[2-(2-methoxycarbonylmethylphenoxy)ethyl]adenine] | 0.001 µM | 0% | 
5 | CCCCOc1nc(N)c2[nH]c(=O)n(CCOc3ccc(C(=O)OC)cc3)c2n1 [Example 5, 2-butoxy-8-oxo-9-[2-(4-methoxycarbonylphenoxy)ethyl]adenine] |  | 0% | 
6 | CCCCOc1nc(N)c2[nH]c(=O)n(CCOc3ccc(CC(=O)OC)cc3)c2n1 [Example 6, 2-butoxy-8-oxo-9-[2-(4-methoxycarbonylmethylphenoxy)ethyl]adenine] | 0.01 µM | 0% | 
7 | CCCCOc1nc(N)c2[nH]c(=O)n(CCOc3ccc(CCC(=O)OC)cc3)c2n1 [Example 7, 2-butoxy-8-oxo-9-{2-[4-(2-methoxycarbonylethyl)phenoxy]ethyl}adenine] |  | 0% | 
8 | CCCCOc1nc(N)c2[nH]c(=O)n(CCCCNS(=O)(=O)c3cccc(C(=O)OC)c3)c2n1 [Example 8, 2-butoxy-8-oxo-9-[4-(3-methoxycarbonylbenzenesulfonamide)butyl]adenine] | 0.003 µM | 0% | 
9 | CCCCOc1nc(N)c2[nH]c(=O)n(CCCCNS(=O)(=O)c3cccc(CC(=O)OC)c3)c2n1 [Example 9, 2-butoxy-8-oxo-9-[4-(3-methoxycarbonylmethylbenzenesulfonamide)butyl]adenine] | 0.003 µM | 0% | <1.0%
10 | CCCCOc1nc(N)c2[nH]c(=O)n(CCCCNC(=O)Nc3cccc(C(=O)OC)c3)c2n1 [Example 10, 2-butoxy-8-oxo-9-[4-(3-methoxycarbonylphenylaminocarbonylamino)butyl]adenine] | 0.001 µM | 1% | 
